In US7083918B2, “Bacterial small-molecule three-hybrid system” (The Trustees of Columbia University in the City of New York, priority 2002, dated 2006):

What was measured:
tolC^− strains = test: growth and viability of tolC- strains on antibiotic; type: cell-based, E. coli
Description: Electrocompetent cells of strain V674E were made by standard methods (35); however, the transformation efficiency of this strain is low (10^6–10^7) due to the tolC^− mutation. Using standard methods, both the pACλcI32 and the pBRαLN plasmids or appropriate derivatives were transformed into the strain. Transformants were grown on LB with 100 μg/mL ampicillin and 6 μg/mL chloramphenicol. […] In addition MacConkey plates can't be used because MacConkey media is toxic to strains bearing a tolC^− mutation.

E. coli cells = test: toxicity to E. coli cells in three-hybrid experiments; type: cell-based; conditions: at the low concentrations of Mtx-SLF required for the three-hybrid experiments; tolC^− strain
Description: The next step was the construction of the E. coli strain expressing the λcI-FKBP12 and (NTD-DHFR fusion proteins and containing the lacZ reporter construct. Plasmids encoding the λcI-FKBP12 and αNTD-DHFR chimeras were prepared from vectors pACλcI32 and pBRαLN using standard molecular biology techniques (8). The same synthetic lacZ reporter, placOR2-62, as initially reported by the Hochschild lab was used. The reporter placOR2-62 is maintained in one copy in the chromosome as a prophage and encodes the lacZ gene 62 bp downstream from the λcI operator (FIG. 1) (16). Based on previous results from Kopytek and Hu showing that tolC^− and thyA^− mutations improved the viability and tolerance of E. coli to Mtx-based molecules, we expected export as well as toxicity of Mtx-SLF to be problematic in E. coli (32). Thus, we modified the original Hochschild strain KS1 to be tolC^− in order to decrease active export of our small molecule. […] We introduced the tolC^− mutation into KS1 via a P1vir transduction from strain SK037 (32). We call this test strain V674E. Transformation of the plasmids bearing the various λcI and αNTD fusion proteins into V674E yielded the final experimental strains.
These X-gal plate results were confirmed using more quantitative liquid β-galactosidase assays. The liquid assays were carried out essentially as originally described by Miller (35). […]

[1] = system: λcI-FKBP12 and αNTD-DHFR fusion proteins (lacZ reporter gene in E. coli strain V674E); test: liquid lacZ (ONPG) β-galactosidase assay, bacterial three-hybrid system; type: cell-based; conditions: for effect of unlinked ligand on the levels of transcription in the three-hybrid system: control without Mtx-SLF (FIG. 4)
Description: The levels of small-molecule induced transcriptional activation were quantified using liquid lacZ assays. The strains here correspond exactly to those in FIG. 2 and are used in liquid ONPG assays where the levels of transcriptional activation can be quantitated based on the amount of reporter protein, b-galactosidase, which is produced. The strains are V674E bearing plasmids encoding λcI and αNTD fusion proteins: 1, λcI-Gal4, αNTD-Gal11^P; 2, λcI, αNTD; 3, λcI-FKBP12, αNTD; 4, λcI-FKBP12, αNTD-DHFR; 5, λcI, αNTD-DHFR. The strains were assayed in triplicate from three transformants and standard deviations are shown. The strains are grown in LB with 0.5 mM IPTG, 100 μg/mL ampicillin, 6 μg/mL chloramphenicol, and small molecules at the indicated concentration. […] The last two small-molecule concentrations are competition assays in which an excess of one of the ligands for the receptor proteins was used to compete out the positive signal due to the three-hybrid system.
The strains are V674E expressing the following λcI and αNTD fusion proteins: (♦), λcI-Gal4, αNTD-Gal11^P (a direct protein-protein interaction); (▬), λcI-FKBP12, αNTD (a negative control); and (▴), λcI-FKBP12, αNTD-DHFR (the three-hybrid system). […] The standard deviation for each data point is also shown.
For the liquid assays, the strains were incubated overnight in LB liquid media containing 100 μg/mL ampicillin, 6 μg/mL chloramphenicol, and 0.5 mM IPTG overnight. These cultures were used to innoculate 1000 fold into LB liquid media containing 100 μg/mL ampicillin, 6 μg/mL chloramphenicol, 0.5 mM IPTG, and small molecule (per concentration indicated in each experiment) and grown to a final OD600 of 0.4-0.6 in a 37° C. shaker which took about 5 hours. No tPEG is used in the liquid assays in order to get a true quantization of the transcription. Then, the protocol from Miller was followed exactly using 0.1 mL cell lysate for the assay (35).

FKBP12 = FKBP12 (Homo sapiens, UniProt P62942); conditions: cited from earlier work
Chain of FKBP12 (P62942 whole entry): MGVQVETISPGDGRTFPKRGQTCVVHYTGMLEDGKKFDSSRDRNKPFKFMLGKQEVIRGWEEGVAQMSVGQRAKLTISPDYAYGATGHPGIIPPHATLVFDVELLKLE

O=C(N[C@H](CO)[C@H](O)c1ccc([N+](=O)[O-])cc1)C(Cl)Cl [Chloramphenicol]
levels that significantly impair growth and viability of tolC^− strains (tolC^− strains): above 8 μg/mL

CN(Cc1cnc2nc(N)nc(N)c2n1)c1ccc(C(=O)N[C@@H](CCC(=O)O)C(=O)O)cc1 [Mtx, methotrexate]
toxicity in E. coli (need for thyA^− mutation) (E. coli cells): not sufficiently toxic
effect of unlinked ligand on the levels of transcription in the three-hybrid system [1]: Neither Mtx, SLF, nor a combination of the two affects the levels of transcription

CCC(C)(C)C(=O)C(=O)N1CCCCC1C(=O)OC(CCc1ccc(OC)c(OC)c1)c1cccc(OCC(=O)O)c1 (stereo not drawn) [SLF]
effect of unlinked ligand on the levels of transcription in the three-hybrid system [1]: Neither Mtx, SLF, nor a combination of the two affects the levels of transcription
affinity for FKBP12 (FKBP12): nanomolar affinity

CCC(C)(C)C(=O)C(=O)N1CCCCC1C(=O)OC(CCc1ccc(OC)c(OC)c1)c1cccc(OCC(=O)OC(C)(C)C)c1 (stereo not drawn) [tert-butyl ester of SLF]
levels of transcription with competitor relative to 1 μM Mtx-SLF alone ([1]; competition: 1 μM Mtx-SLF plus 10-fold excess of competitor): about half
